# Reference: PubChem BioAssay (NCI)
#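 How tested: cells in 96-well plates exposed to compound for 48 hours at five concentrations. Abbreviation: GI50, concentration required for 50% inhibition of growth. TGI: concentration producing complete growth inhibition.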
# Assays:
# Experiment in all cases: inhibition of tumour cell growth, NCI panel, 48 h
# [1] = test system: 786-0 renal
# [2] = test system: A498 renal
# [3] = test system: A549 NSCLC
# [4] = test system: ACHN renal
# [5] = test system: BT-549 breast
# [6] = test system: CAKI-1 renal
# [7] = test system: CCRF-CEM leukemia
# [8] = test system: COLO 205 colon
# [9] = test system: DU-145 prostate
# [10] = test system: HCC-2998 colon
# [11] = test system: HCT-116 colon
# [12] = test system: HCT-15 colon
# [13] = test system: HOP-62 NSCLC
# [14] = test system: HOP-92 NSCLC
# [15] = test system: HS 578T breast
# [16] = test system: HT29 colon
# [17] = test system: IGROV1 ovarian
# [18] = test system: K-562 leukemia
# [19] = test system: KM12 colon
# [20] = test system: LOX IMVI melanoma
# [21] = test system: M14 melanoma
# [22] = test system: MALME-3M melanoma
# [23] = test system: MCF7 breast
# [24] = test system: MDA-MB-231 breast
# [25] = test system: MDA-MB-435
# [26] = test system: MOLT-4 leukemia
# [27] = test system: NCI-H226 lung
# [28] = test system: NCI-H23 lung
# [29] = test system: NCI-H460 lung
# [30] = test system: NCI-H522 lung
# [31] = test system: NCI/ADR-RES ovarian
# [32] = test system: OVCAR-3 ovarian
# [33] = test system: OVCAR-4 ovarian
# [34] = test system: OVCAR-5 ovarian
# [35] = test system: OVCAR-8 ovarian
# [36] = test system: PC-3 prostate
# [37] = test system: RPMI-8226 leukemia
# [38] = test system: RXF 393 renal
# [39] = test system: SF-268 CNS
# [40] = test system: SF-539 CNS
# [41] = test system: SK-MEL-2 melanoma
# [42] = test system: SK-MEL-28 melanoma
# [43] = test system: SK-MEL-5 melanoma
# [44] = test system: SK-OV-3 ovarian
# [45] = test system: SN12C renal
# [46] = test system: SNB-19 CNS
# [47] = test system: SNB-75 CNS
# [48] = test system: SR leukemia
# [49] = test system: SW-620 colon
# [50] = test system: T-47D breast
# [51] = test system: TK-10 renal
# [52] = test system: U251 CNS
# [53] = test system: UACC-257 melanoma
# [54] = test system: UACC-62 melanoma
# [55] = test system: UO-31 renal
# [56] = test system: EKVX NSCLC
# [57] = test system: HL-60(TB) leukemia
# [58] = test system: SF-295 CNS
structure (smiles),measurement,setting,value
COc1ccc(/C=C2/CN(C(=O)c3ccccc3F)C/C(=C\c3ccc(OC)cc3)C2=O)cc1,GI50,[1],2.04 µM
same,TGI,[1],4.37 µM
same,GI50,[2],13.5 µM
same,TGI,[2],27.1 µM
same,GI50,[3],4.83 µM
same,TGI,[3],34.3 µM
same,GI50,[4],2.95 µM
same,TGI,[4],9.46 µM
same,GI50,[5],2.05 µM
same,TGI,[5],4.32 µM
same,GI50,[6],4.87 µM
same,TGI,[6],> 100 µM
same,GI50,[7],2.76 µM
same,TGI,[7],> 100 µM
same,GI50,[8],3.82 µM
same,TGI,[8],12.3 µM
same,GI50,[9],7.47 µM
same,TGI,[9],23.9 µM
same,GI50,[10],1.91 µM
same,TGI,[10],3.48 µM
same,GI50,[11],0.392 µM
same,TGI,[11],1.39 µM
same,GI50,[12],2.05 µM
same,TGI,[12],6.62 µM
same,GI50,[13],3.77 µM
same,TGI,[13],14.6 µM
same,GI50,[14],10.3 µM
same,TGI,[14],39.6 µM
same,GI50,[15],2.54 µM
same,TGI,[15],8.31 µM
same,GI50,[16],1.96 µM
same,TGI,[16],3.78 µM
same,GI50,[17],3.43 µM
same,TGI,[17],11.3 µM
same,GI50,[18],3.49 µM
same,TGI,[18],> 100 µM
same,GI50,[19],1.91 µM
same,TGI,[19],3.59 µM
same,GI50,[20],1.66 µM
same,TGI,[20],3.24 µM
same,GI50,[21],2.73 µM
same,TGI,[21],7.51 µM
same,GI50,[22],5.83 µM
same,TGI,[22],21.3 µM
same,GI50,[23],0.543 µM
same,TGI,[23],3.56 µM
same,GI50,[24],2.88 µM
same,TGI,[24],9.04 µM
same,GI50,[25],2.48 µM
same,TGI,[25],9.93 µM
same,GI50,[26],3.79 µM
same,TGI,[26],49.5 µM
same,GI50,[27],29.5 µM
same,TGI,[27],> 100 µM
same,GI50,[28],5.03 µM
same,TGI,[28],24.3 µM
same,GI50,[29],8.81 µM
same,TGI,[29],30.8 µM
same,GI50,[30],4.2 µM
same,TGI,[30],15 µM
same,GI50,[31],3.49 µM
same,TGI,[31],82.5 µM
same,GI50,[32],2.3 µM
same,TGI,[32],4.95 µM
same,GI50,[33],6.02 µM
same,TGI,[33],> 100 µM
same,GI50,[34],7.55 µM
same,TGI,[34],28.8 µM
same,GI50,[35],3.4 µM
same,TGI,[35],85.1 µM
same,GI50,[36],2.57 µM
same,TGI,[36],8.87 µM
same,GI50,[37],0.242 µM
same,TGI,[37],0.714 µM
same,GI50,[38],1.85 µM
same,TGI,[38],3.68 µM
same,GI50,[39],4.28 µM
same,TGI,[39],18.9 µM
same,GI50,[40],3.65 µM
same,TGI,[40],14.6 µM
same,GI50,[41],15.3 µM
same,TGI,[41],35.8 µM
same,GI50,[42],2.72 µM
same,TGI,[42],7.93 µM
same,GI50,[43],1.88 µM
same,TGI,[43],4.14 µM
same,GI50,[44],4.58 µM
same,TGI,[44],18.3 µM
same,GI50,[45],2.78 µM
same,TGI,[45],10.9 µM
same,GI50,[46],6.21 µM
same,TGI,[46],20.7 µM
same,GI50,[47],11.4 µM
same,TGI,[47],39.8 µM
same,GI50,[48],0.884 µM
same,TGI,[48],6.33 µM
same,GI50,[49],1.86 µM
same,TGI,[49],3.84 µM
same,GI50,[50],5.65 µM
same,TGI,[50],76.2 µM
same,GI50,[51],4.95 µM
same,TGI,[51],17.7 µM
same,GI50,[52],2.18 µM
same,TGI,[52],5.14 µM
same,GI50,[53],3.24 µM
same,TGI,[53],13.3 µM
same,GI50,[54],2.53 µM
same,TGI,[54],11.5 µM
same,GI50,[55],1.9 µM
same,TGI,[55],6.69 µM
C=CC1CC12C(=O)C1OC2(C)C2C(=O)c3ccccc3C(=O)C12 (centres undefined),GI50,[1],> 52.5 µM
same,TGI,[1],> 100 µM
same,GI50,[2],> 100 µM
same,TGI,[2],> 100 µM
same,GI50,[3],> 60 µM
same,TGI,[3],> 100 µM
same,GI50,[4],57.3 µM
same,TGI,[4],> 100 µM
same,GI50,[5],> 72.9 µM
same,TGI,[5],> 100 µM
same,GI50,[6],21.7 µM
same,TGI,[6],58.6 µM
same,GI50,[7],39.2 µM
same,TGI,[7],> 93.9 µM
same,GI50,[8],> 100 µM
same,TGI,[8],> 100 µM
same,GI50,[9],72.7 µM
same,TGI,[9],> 100 µM
same,GI50,[56],> 100 µM
same,TGI,[56],> 100 µM
same,GI50,[10],> 100 µM
same,TGI,[10],> 100 µM
same,GI50,[11],> 100 µM
same,TGI,[11],> 100 µM
same,GI50,[12],41.9 µM
same,TGI,[12],> 100 µM
same,GI50,[57],0.691 µM
same,TGI,[57],2.59 µM
same,GI50,[13],> 68 µM
same,TGI,[13],> 100 µM
same,GI50,[14],> 77.6 µM
same,TGI,[14],> 100 µM
same,GI50,[15],> 57.4 µM
same,TGI,[15],98.2 µM
same,GI50,[16],> 61.6 µM
same,TGI,[16],> 100 µM
same,GI50,[17],> 69.3 µM
same,TGI,[17],> 100 µM
same,GI50,[18],2.3 µM
same,TGI,[18],6.94 µM
same,GI50,[19],> 45.3 µM
same,TGI,[19],> 80.8 µM
same,GI50,[20],12.7 µM
same,TGI,[20],68.7 µM
same,GI50,[21],> 100 µM
same,TGI,[21],> 100 µM
same,GI50,[22],21.3 µM
same,TGI,[22],59.1 µM
same,GI50,[23],42.9 µM
same,TGI,[23],> 76.1 µM
same,GI50,[24],24.8 µM
same,TGI,[24],> 100 µM
same,GI50,[25],> 40.1 µM
same,TGI,[25],> 54.4 µM
same,GI50,[26],1.54 µM
same,TGI,[26],11.1 µM
same,GI50,[27],> 76.2 µM
same,TGI,[27],> 100 µM
same,GI50,[28],39.4 µM
same,TGI,[28],> 59.8 µM
same,GI50,[29],> 58.3 µM
same,TGI,[29],> 100 µM
same,GI50,[30],> 61.7 µM
same,TGI,[30],> 100 µM
same,GI50,[31],> 43.6 µM
same,TGI,[31],> 70.9 µM
same,GI50,[32],13.9 µM
same,TGI,[32],60.5 µM
same,GI50,[33],31.5 µM
same,TGI,[33],> 100 µM
same,GI50,[34],> 54.7 µM
same,TGI,[34],> 88.5 µM
same,GI50,[35],> 42.8 µM
same,TGI,[35],> 85.8 µM
same,GI50,[36],54.7 µM
same,TGI,[36],> 100 µM
same,GI50,[37],28.2 µM
same,TGI,[37],99.2 µM
same,GI50,[38],35.2 µM
same,TGI,[38],> 100 µM
same,GI50,[39],> 54 µM
same,TGI,[39],> 92.5 µM
same,GI50,[58],23.6 µM
same,TGI,[58],59.8 µM
same,GI50,[40],> 82 µM
same,TGI,[40],> 100 µM
same,GI50,[41],> 86 µM
same,TGI,[41],> 100 µM
same,GI50,[42],> 71 µM
same,TGI,[42],> 100 µM
same,GI50,[43],18.7 µM
same,TGI,[43],54.7 µM
same,GI50,[44],> 93.3 µM
same,TGI,[44],> 100 µM
same,GI50,[45],> 56.3 µM
same,TGI,[45],> 100 µM
same,GI50,[46],> 47.7 µM
same,TGI,[46],> 84.7 µM
same,GI50,[47],> 37.4 µM
same,TGI,[47],> 76.1 µM
same,GI50,[49],45.3 µM
same,TGI,[49],> 100 µM
same,GI50,[50],51.4 µM
same,TGI,[50],> 100 µM
same,GI50,[51],> 49.9 µM
same,TGI,[51],> 100 µM
same,GI50,[52],38.7 µM
same,TGI,[52],> 100 µM
same,GI50,[53],> 45.9 µM
same,TGI,[53],> 81.7 µM
same,GI50,[54],35.1 µM
same,TGI,[54],> 100 µM
same,GI50,[55],> 87.3 µM
same,TGI,[55],> 100 µM
